Measurements as given in patent US10695302B2, “Treatments for attention and cognitive disorders, and for dementia associated with a neurodegenerative disorder” (priority 2013, dated 2020).
pIC50: −log10 of the molar value.

How the values were obtained:
hNET = hNET (Homo sapiens, UniProt P23975); test: effect on efflux of monoamine neurotransmitters, hNET; type: cell-based
male Sprague-Dawley rats [1] = test: sustained attention task (vigilance index); type: in vivo, rat
Procedure: The vigilance index (VI) of rats treated with SK609 was evaluated using the following protocol. Substantively, eight water restricted male Sprague-Dawley rats were trained in an operant task of sustained attention (McGaughy & Sarter, 1995, Psychopharm. 117:340-357). In response to both signal and non-signal conditions, a water reward was given for correct responses as a positive reinforcer. Rats were first trained by successive approximation to establish lever pressing behavior. Subjects were then trained to criterion performance on the sustained attention task with a 1,000 msec light stimulus duration and then transferred to 15 msec stimulus duration.
Performance was determined based on a rat's calculated VI: VI=(h−f)/[2*(h+f)−(h+f)^2], wherein h (relative hits)=# Hits/(# Hits+# Misses), and f ([…])=# False Alarms/(# False Alarms+# Correct Rejections).
VI of 1 indicates complete vigilance; VI of 0.35 indicates above chance vigilance; and VI of −1 indicates no vigilance.
Testing occurred over a 45 min session of randomly presented signal and non-signal trials. Criterion performance required a rat to achieve greater than 59% signal and non-signal trials, a VI greater than 0.35 and less than 25% omissions per day for three consecutive days. Once subjects stabilized at a baseline, their responses are no longer considered random.
SK609 was administered intraperitoneally (IP) at various doses 15 min prior to beginning the task. Prazosin was administered IP 30 min prior, and SK609 15 min prior to beginning the task. Data are presented as difference scores for VI from an average baseline (FIGS. 4-6).
The operant conditioning chambers contained a house light (2.8 W), a stimulus light (2.8 W), a pair of retractable levers and water reward apparatus. Eight water-restricted male Sprague-Dawley rats were trained in an operant task of sustained attention. In response to both signal and non-signal conditions, a water reward was given for correct responses as a positive reinforcer.
Rats were first trained by successive approximation to establish lever pressing behavior. Subsequently, the rats were trained to criterion performance. Criterion performance required a rat to achieve greater than 59% signal and non-signal trials, a VI greater than 0.35 and less than 25% omissions per day for three consecutive days.
Prazosin (0.25 mg/kg) and raclopride (0.05 mg/kg) were administered (IP) 30 min prior to the experiment followed by either SK609 (4.0 mg/kg) or MPH (2.0 mg/kg) 15 min prior to beginning the task. Performance was determined based on a rat's calculated Vigilance Index (VI). Data are presented as difference scores for VI from an average baseline.

hDAT = hDAT (Homo sapiens, UniProt Q01959); test: effect on efflux of monoamine neurotransmitters, hDAT; type: cell-based
hSERT = hSERT (Homo sapiens, UniProt P31645); test: effect on efflux of monoamine neurotransmitters, hSERT; type: cell-based
male Sprague-Dawley rats [2] = test: cross maze task; type: in vivo, rat
Source text: The experimental design for cross maze task was adapted from Stefani et al, 2003, Behav. Neurosci. 117(4):728-37 (FIG. 7). Ten food-restricted male Sprague-Dawley rats were acclimated to a cross maze whose arms differed by color (red vs blue) or texture (smooth vs rough). A food reward was placed in a food well located at the end of the arm.
Rats were trained to form a mental set by associating a food reward with one feature of one dimension. Rats were subsequently tested on their ability to predict the food reward based on one feature of the alternative dimension.
0.9% saline (1 mg/kg), raclopride (0.05 mg/kg) or SK609 (4 mg/kg) were administered (IP) 30 prior to the experiment, followed by 0.9% saline (1 mg/kg) 15 min prior to beginning the task. Animals were tested to criterion performance of 8 consecutive correct trials.

male Sprague-Dawley rats [3] = test: set-shifting task; type: in vivo, rat; details: IP, SK609 4.0 mg/kg or raclopride 0.05 mg/kg, versus saline
Source text: Sixteen food-restricted male Sprague-Dawley rats were trained to discriminate between a pair of small ceramic pots in order to retrieve a food reward buried within one of the pots. A pair of pots differed from each other along three possible dimensions: scent, digging medium, or material covering the outer surface of the pot.
Simple discriminations (SD) were made between pots differing from each other along one dimension. Compound Discriminations (CD) were made between pots differing along two dimensions. Intra-dimensional Shifts (IDS) were changes made within a previously tested dimension. Extra-Dimensional Shifts (EDS) were changes made to a previously untested dimension.
Animals were tested on their ability to form an attentional set by attending to the dimension that predicts the food reward. Animals were then tested on their ability to make an IDS, EDS, or reversal by responding only to the new salient dimension while suppressing the urge to respond to the previously salient stimulus.
0.9% saline (1 mg/kg), raclopride (0.05 mg/kg) or SK609 (4 mg/kg) were administered (IP) 30 prior to the experiment followed by 0.9% saline (1 mg/kg) 15 min prior to beginning the task. Animals were tested to criterion performance of 5 consecutive correct trials.

[4] = efflux measured as percentage of vehicle, FIG. 1
[5] = panel of monoamine neurotransmitter transporters
[6] = SK609 IP 4.0 mg/kg, prazosin IP 0.25 mg/kg or raclopride IP 0.05 mg/kg 30 min prior
[7] = SK609 peak dose 8 mg/kg, FIG. 4

hSERT, sequence (P31645 whole entry): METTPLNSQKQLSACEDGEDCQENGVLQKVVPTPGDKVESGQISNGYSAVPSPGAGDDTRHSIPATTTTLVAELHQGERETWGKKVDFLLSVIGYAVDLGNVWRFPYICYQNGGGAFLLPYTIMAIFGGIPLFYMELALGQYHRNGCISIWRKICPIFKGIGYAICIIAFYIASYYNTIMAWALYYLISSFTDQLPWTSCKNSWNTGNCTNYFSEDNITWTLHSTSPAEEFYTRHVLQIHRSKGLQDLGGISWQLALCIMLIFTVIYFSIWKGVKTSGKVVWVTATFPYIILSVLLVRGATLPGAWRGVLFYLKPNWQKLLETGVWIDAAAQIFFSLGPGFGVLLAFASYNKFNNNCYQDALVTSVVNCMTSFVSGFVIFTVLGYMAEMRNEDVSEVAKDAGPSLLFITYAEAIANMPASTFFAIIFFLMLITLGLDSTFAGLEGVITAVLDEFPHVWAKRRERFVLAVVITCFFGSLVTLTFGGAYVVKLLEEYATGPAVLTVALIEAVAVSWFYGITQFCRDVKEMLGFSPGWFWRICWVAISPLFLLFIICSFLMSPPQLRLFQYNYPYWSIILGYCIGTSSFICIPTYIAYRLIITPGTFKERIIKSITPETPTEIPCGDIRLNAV
hDAT, sequence (Q01959 whole entry): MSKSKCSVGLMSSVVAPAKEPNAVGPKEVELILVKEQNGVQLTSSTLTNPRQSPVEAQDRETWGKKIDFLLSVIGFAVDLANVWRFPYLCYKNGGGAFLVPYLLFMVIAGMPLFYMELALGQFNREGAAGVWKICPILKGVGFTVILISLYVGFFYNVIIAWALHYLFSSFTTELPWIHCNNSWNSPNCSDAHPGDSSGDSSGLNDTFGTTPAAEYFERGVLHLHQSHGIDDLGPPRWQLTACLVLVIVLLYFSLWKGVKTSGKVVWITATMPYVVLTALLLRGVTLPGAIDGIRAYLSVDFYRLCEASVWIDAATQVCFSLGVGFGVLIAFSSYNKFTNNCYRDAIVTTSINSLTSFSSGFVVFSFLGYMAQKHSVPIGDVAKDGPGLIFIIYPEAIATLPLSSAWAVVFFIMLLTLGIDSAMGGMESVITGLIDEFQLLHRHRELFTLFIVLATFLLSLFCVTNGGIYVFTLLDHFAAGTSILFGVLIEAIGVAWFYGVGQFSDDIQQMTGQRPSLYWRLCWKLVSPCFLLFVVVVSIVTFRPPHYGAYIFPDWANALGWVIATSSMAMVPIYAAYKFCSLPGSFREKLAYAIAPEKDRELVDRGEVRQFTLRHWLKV
hNET, sequence (P23975 whole entry): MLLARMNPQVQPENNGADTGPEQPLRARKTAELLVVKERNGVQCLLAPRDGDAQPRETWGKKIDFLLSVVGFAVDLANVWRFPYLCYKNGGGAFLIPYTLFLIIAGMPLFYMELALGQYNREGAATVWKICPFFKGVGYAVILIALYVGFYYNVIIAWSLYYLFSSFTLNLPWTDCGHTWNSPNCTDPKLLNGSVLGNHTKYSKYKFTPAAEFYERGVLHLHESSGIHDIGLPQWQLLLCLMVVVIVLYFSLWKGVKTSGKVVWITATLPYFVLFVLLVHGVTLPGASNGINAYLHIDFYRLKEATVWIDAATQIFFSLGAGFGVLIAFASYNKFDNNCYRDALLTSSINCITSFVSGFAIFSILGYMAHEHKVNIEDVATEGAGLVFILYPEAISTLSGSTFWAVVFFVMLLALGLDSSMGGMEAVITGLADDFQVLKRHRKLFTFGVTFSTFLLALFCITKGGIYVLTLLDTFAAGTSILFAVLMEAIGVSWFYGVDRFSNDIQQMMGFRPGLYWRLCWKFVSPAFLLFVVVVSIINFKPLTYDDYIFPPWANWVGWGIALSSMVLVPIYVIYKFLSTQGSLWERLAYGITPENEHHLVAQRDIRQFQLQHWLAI

Structure (SMILES) | pIC50 (hNET; [4]) | effect on NET (hNET; [5]) | peak dose for vigilance index (VI) performance (male Sprague-Dawley rats [1]; IP, doses 2, 4, 8, 10 and 20 mg/kg, inverted-U dose response) [mg/kg] | % omissions (male Sprague-Dawley rats [1]; SK609 8 mg/kg IP) | sustained attention (VI difference from baseline) (male Sprague-Dawley rats [1]; SK609 8 mg/kg IP, 15 min prior to task) | % omissions (male Sprague-Dawley rats [1]; SK609 high doses IP) | pIC50 (hDAT; [4]) | effect on dopamine transporters (DAT) (hDAT; [5]) | pIC50 (hSERT; [4]) | effect on serotonin transporters (SERT) (hSERT; [5]) | cross maze overall performance in 8 trial increments over 80 trials (male Sprague-Dawley rats [2]; SK609 IP 4.0 mg/kg vs saline, p=0.008, FIG. 10B) | cross maze performance (number of trials to reach criterion) (male Sprague-Dawley rats [2]; SK609 IP 4.0 mg/kg, n=5 vs saline n=2, p=0.027, FIG. 10A) | performance in EDS, IDS, CD of set-shifting task (male Sprague-Dawley rats [3]) | effect of antagonist pre-treatment on MPH VI performance (male Sprague-Dawley rats [1]; MPH IP 2.0 mg/kg, prazosin IP 0.25 mg/kg, n=8) | effect of antagonist pre-treatment on SK609 VI performance (male Sprague-Dawley rats [1]; [6]) | effect of antagonist pre-treatment on SK609 VI performance (male Sprague-Dawley rats [1]; [7])
CC(N)CCc1ccccc1Cl (stereo not shown) [SK609, 4-(2-chlorophenyl)-butan-2-amine] | 6.54 | selective NET antagonism | 8 | without increasing omissions | enhanced sustained attention | increased the % of omissions | 5.07 | no effect | 4.45 | no effect | improved performance faster and maintained improvements better than saline | improved performance relative to saline | did not differ significantly from saline |  |  | 
COc1cc2nc(N3CCN(C(=O)c4ccco4)CC3)nc(N)c2cc1OC [prazosin, 2-[4-(2-furoyl)piperazin-1-yl]-6,7-dimethoxyquinazolin-4-amine, reference compound] |  |  |  |  |  |  |  |  |  |  |  |  |  | blocked the effects | blocked the effects | completely abrogated
CCN1CCC[C@H]1CNC(=O)c1c(O)c(Cl)cc(Cl)c1OC [raclopride, 3,5-dichloro-N-{[(2S)-1-ethylpyrrolidin-2-yl]methyl}-2-hydroxy-6-methoxybenzamide, reference compound] |  |  |  |  |  |  |  |  |  |  |  |  | impairments in performance relative to controls |  | blocked the effects | moderately
